Laboratory results taken from ChEMBL document CHEMBL3576787, “Alkaloidal metabolites from a marine-derived Aspergillus sp. fungus” (J Nat Prod, 2015).
Values after ≈ are worked out from the molar mass of the structure shown. Active and inactive are the calls of the source. The rule behind the calls is not given here.

How the values were obtained:
K562 = test: Cytotoxicity against human K562 cells; type: functional, cell-based
Staphylococcus aureus = test: Antimicrobial activity against Staphylococcus aureus incubated for 24 hrs; type: functional
Escherichia coli = test: Antimicrobial activity against Escherichia coli incubated for 24 hrs; type: functional
[1] = target: Isocitrate lyase (Candida albicans) (UniProt Q9P8Q7); test: Inhibition of Candida albicans isocitrate lyase assessed as reduction in glyoxylate phenylhydrazone formation using phenylhydrazine and isocitrate incubated for 30 mins by spectrophotometry
Micrococcus luteus = test: Antimicrobial activity against Micrococcus luteus incubated for 24 hrs; type: functional
A549 = test: Cytotoxicity against human A549 cells; type: functional, cell-based
Proteus hauseri = test: Antimicrobial activity against Proteus hauseri incubated for 24 hrs; type: functional
Salmonella typhimurium = test: Antimicrobial activity against Salmonella typhimurium incubated for 24 hrs; type: functional, Salmonella enterica subsp. enterica serovar Typhimurium; conditions: Salmonella enterica
[2] = target: Sortase A (Staphylococcus aureus) (UniProt Q2FV99); test: Inhibition of sortase A (Staphylococcus aureus)
[3] = Inhibition of porcine cerebral cortex Na+/K+ ATPase using 3-O-methylfluorescein phosphate and […] incubated for 30 mins by spectrophotometry; type: tissue-based, Sus scrofa

Chain of Isocitrate lyase (Candida albicans) (Q9P8Q7 whole entry): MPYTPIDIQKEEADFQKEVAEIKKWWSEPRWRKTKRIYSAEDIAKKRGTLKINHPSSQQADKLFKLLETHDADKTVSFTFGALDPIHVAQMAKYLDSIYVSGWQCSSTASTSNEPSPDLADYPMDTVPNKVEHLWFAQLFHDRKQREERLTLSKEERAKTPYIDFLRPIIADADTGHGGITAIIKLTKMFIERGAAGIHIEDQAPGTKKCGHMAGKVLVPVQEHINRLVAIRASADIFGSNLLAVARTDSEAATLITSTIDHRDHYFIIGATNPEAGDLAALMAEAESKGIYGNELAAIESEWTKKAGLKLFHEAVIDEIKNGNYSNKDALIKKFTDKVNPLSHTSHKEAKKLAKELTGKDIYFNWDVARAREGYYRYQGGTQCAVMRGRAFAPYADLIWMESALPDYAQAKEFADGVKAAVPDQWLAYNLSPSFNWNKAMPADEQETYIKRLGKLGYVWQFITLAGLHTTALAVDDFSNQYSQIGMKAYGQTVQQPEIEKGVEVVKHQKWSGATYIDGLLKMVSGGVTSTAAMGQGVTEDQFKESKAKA

C[C@H]1C(=O)N2c3ccccc3[C@]3(O)C[C@@H](n4cnc5ccccc5c4=O)C(=O)N1[C@H]23 gave an IC50 (K562) of 50.4 µM, an MIC (Staphylococcus aureus) of over 100 µg/mL and an MIC (Escherichia coli) of over 100 µg/mL. The inhibition [1] was “inactive”, the MIC (Micrococcus luteus) was over 100 µg/mL and the IC50 (A549) was 21.9 µM. The MIC (Proteus hauseri) was over 100 µg/mL, the MIC (Salmonella typhimurium) was over 100 µg/mL and the inhibition [2] was “inactive”. It also gave an IC50 [3] of 78.1 µM.

For CC(C)[C@H]1C(=O)N2c3ccccc3[C@]3(O)C[C@H](n4cnc5ccccc5c4=O)C(=O)N1[C@H]23, the IC50 (K562) was 17.8 µM, the MIC (Staphylococcus aureus) was 100 µg/mL (≈ 232 µM) and the MIC (Escherichia coli) was over 100 µg/mL. The inhibition [1] was “inactive”, the MIC (Micrococcus luteus) was over 100 µg/mL and the IC50 (A549) was 29.2 µM. The MIC (Proteus hauseri) was 100 µg/mL (≈ 232 µM), the MIC (Salmonella typhimurium) was 100 µg/mL (≈ 232 µM) and the inhibition [2] was “inactive”. It also gave an IC50 [3] of 56.8 µM.

C[C@@H]1NC(=O)[C@@H](Cc2c[nH]c3ccccc23)n2c1nc1ccccc1c2=O [FUMIQUINAZOLINE F] showed an IC50 (K562) of over 100 µM, an MIC (Staphylococcus aureus) of over 100 µg/mL and an MIC (Escherichia coli) of over 100 µg/mL. For the same compound, the inhibition [1] was “inactive”, the MIC (Micrococcus luteus) was over 100 µg/mL and the IC50 (A549) was over 100 µM. For the same compound, the MIC (Proteus hauseri) was 100 µg/mL (≈ 279 µM), the MIC (Salmonella typhimurium) was over 100 µg/mL and the inhibition [2] was “inactive”. The IC50 [3] was 17.4 µM.

For COc1cccc2c1C(=O)c1c(O)c3c(c(O)c1C2=O)C[C@@](O)(C(=O)CO)C[C@@H]3O[C@H]1C[C@H](N)[C@H](O)[C@H](C)O1 [DOXORUBICIN], the IC50 (K562) was 1.46 µM and the IC50 (A549) was 1.83 µM.

For CC[C@H]1C(=O)N2c3ccccc3[C@]3(O)C[C@@H](n4cnc5ccccc5c4=O)C(=O)N1[C@H]23, the IC50 (K562) was 25.9 µM, the MIC (Staphylococcus aureus) was over 100 µg/mL and the MIC (Escherichia coli) was over 100 µg/mL. The inhibition [1] was “inactive”, the MIC (Micrococcus luteus) was over 100 µg/mL and the IC50 (A549) was 19.3 µM. For the same compound, the MIC (Proteus hauseri) was over 100 µg/mL, the MIC (Salmonella typhimurium) was over 100 µg/mL and the inhibition [2] was “inactive”. The IC50 [3] was 19.5 µM.

CC1(C)S[C@@H]2[C@H](NC(=O)[C@H](N)c3ccccc3)C(=O)N2[C@H]1C(=O)O [AMPICILLIN] showed an MIC (Staphylococcus aureus) of 0.78 µg/mL (≈ 2.23 µM), an MIC (Escherichia coli) of 3.13 µg/mL (≈ 8.96 µM) and an MIC (Micrococcus luteus) of 0.2 µg/mL (≈ 0.572 µM). The MIC (Proteus hauseri) was 0.39 µg/mL (≈ 1.12 µM) and the MIC (Salmonella typhimurium) was 0.78 µg/mL (≈ 2.23 µM).

CC(C)[C@H]1C(=O)N2c3ccccc3[C@]3(O)C[C@@H](n4cnc5ccccc5c4=O)C(=O)N1[C@H]23 gave an IC50 (K562) of 14.4 µM, an MIC (Staphylococcus aureus) of over 100 µg/mL and an MIC (Escherichia coli) of over 100 µg/mL. For the same compound, the inhibition [1] was “inactive”, the MIC (Micrococcus luteus) was over 100 µg/mL and the IC50 (A549) was 18.6 µM. The MIC (Proteus hauseri) was over 100 µg/mL, the MIC (Salmonella typhimurium) was over 100 µg/mL and the inhibition [2] was “inactive”. For the same compound, the IC50 [3] was 37.9 µM.

In the case of C[C@@H]1O[C@@H](O[C@H]2C[C@@H](O)[C@]3(CO)[C@H]4[C@H](O)C[C@]5(C)[C@@H](C6=CC(=O)OC6)CC[C@]5(O)[C@@H]4CC[C@]3(O)C2)[C@H](O)[C@H](O)[C@H]1O [OUABAIN], the IC50 [3] is reported as 6.43 µM.

Work on CC(C)[C@@H]1N[C@@H]2N(C1=O)c1ccccc1[C@]21C[C@@H]2C(=O)N[C@](C)(O1)c1nc3ccccc3c(=O)n12 [FUMIQUINAZOLINE L] yielded an IC50 (K562) of over 100 µM, an MIC (Staphylococcus aureus) of over 100 µg/mL and an MIC (Escherichia coli) of over 100 µg/mL. The inhibition [1] was “inactive”, the MIC (Micrococcus luteus) was 100 µg/mL (≈ 212 µM) and the IC50 (A549) was over 100 µM. The MIC (Proteus hauseri) was over 100 µg/mL, the MIC (Salmonella typhimurium) was 100 µg/mL (≈ 212 µM) and the inhibition [2] was “inactive”. The IC50 [3] was 20.2 µM.

For CC(C)[C@@H]1N[C@@H]2N(C1=O)c1ccccc1[C@]2(O)C[C@@H]1C(=O)N[C@@H](C)c2nc3ccccc3c(=O)n21, the IC50 (K562) was 13.8 µM, the MIC (Staphylococcus aureus) was over 100 µg/mL and the MIC (Escherichia coli) was over 100 µg/mL. The inhibition [1] was “inactive”, the MIC (Micrococcus luteus) was over 100 µg/mL and the IC50 (A549) was 15.8 µM. For the same compound, the MIC (Proteus hauseri) was over 100 µg/mL, the MIC (Salmonella typhimurium) was over 100 µg/mL and the inhibition [2] was “inactive”. It also gave an IC50 [3] of 34.3 µM.
